One assay concerns PDE4. The experiment in a line: Selectivity: inhibition of PDE4 (radioenzymatic assay). The format is biochemical, bovine. Particulars: Table 2. The method, then:
(§1) 2.1.1. Isolation of Phosphodiesterases from Smooth Muscle A 3 g segment of bovine aortic media cut into pieces with scissors was homogenized with an ultra-turrax then a potter glass/glass homogenizer in 7 volumes by weight of buffer A containing a protease inhibitor cocktail (20 mM Tris-HCl, 0.25 M saccharose, 2 mM magnesium acetate, 1 mM dithiothreitol, 5 mM EGTA, 2000 U/ml aprotinin, 10 mg/l leupeptin and 10 mg/l soya trypsic inhibitor). The homogenizate was centrifuged at 105,000 g for 1 hour. The supernatant was loaded on a DEAE-Sephacel column (15×1.6 cm) pre-equilibrated with buffer B (buffer A without the saccharose, EGTA and protease inhibitors). The column was washed until there was no detectable absorption at 280 nm, then eluted with a linear gradient of NaCl (0-0.5 M) in buffer B. 3-ml fractions were collected and enzyme activity was determined under the conditions described hereinbelow to localize the different enzymes PDE1, PDE3, PDE4 and PDE5 which were aliquoted and frozen at −80° C. (Lugnier et al., Biochem. Phamacol., 1986, 35: 1746-1751). PDE2 was isolated from human platelets, provided by Etablissement Français du Sang-Alsace, according to Kameni Tcheudji J F et al., (J. Mol. Biol. 2001; 310: 181-791), and stored until use at −80° C. in small aliquots.
Cyclic nucleotide phosphodiesterase activity was determined by a radioenzymatic method using tritium-labelled cyclic GMP or AMP (1 μM) as substrate (Lugnier et al., 1986). ^3H-labelled adenosine or guanosine monophosphate formed by hydrolysis of the radiolabelled cyclic nucleotide was then converted to ^3H-labelled adenosine or guanosine in a second reaction with […] in excess. The nucleoside formed was separated from the nucleotides by anion exchange chromatography. Nucleoside radioactivity was determined by liquid scintillation counting. Enzymatic incubations were carried out under conditions allowing no more than 15% hydrolysis of the substrate; each point was performed in duplicate.
(§2) The activity of the compounds was evaluated on other phosphodiesterase isoforms, particularly basal state or calmodulin-activated PDE1 from vascular smooth muscle, PDE3, PDE4 and PDE5 from vascular smooth muscle. The results obtained are presented in Tables 1 and 2 hereinbelow and are expressed as the percentage inhibition of enzymatic activity produced by […] of the test compound.

In a further assay the target is T1, PDE3 (Bos taurus, UniProt A0A3Q1M1E8).
T1 sequence (A0A3Q1M1E8 1-1126): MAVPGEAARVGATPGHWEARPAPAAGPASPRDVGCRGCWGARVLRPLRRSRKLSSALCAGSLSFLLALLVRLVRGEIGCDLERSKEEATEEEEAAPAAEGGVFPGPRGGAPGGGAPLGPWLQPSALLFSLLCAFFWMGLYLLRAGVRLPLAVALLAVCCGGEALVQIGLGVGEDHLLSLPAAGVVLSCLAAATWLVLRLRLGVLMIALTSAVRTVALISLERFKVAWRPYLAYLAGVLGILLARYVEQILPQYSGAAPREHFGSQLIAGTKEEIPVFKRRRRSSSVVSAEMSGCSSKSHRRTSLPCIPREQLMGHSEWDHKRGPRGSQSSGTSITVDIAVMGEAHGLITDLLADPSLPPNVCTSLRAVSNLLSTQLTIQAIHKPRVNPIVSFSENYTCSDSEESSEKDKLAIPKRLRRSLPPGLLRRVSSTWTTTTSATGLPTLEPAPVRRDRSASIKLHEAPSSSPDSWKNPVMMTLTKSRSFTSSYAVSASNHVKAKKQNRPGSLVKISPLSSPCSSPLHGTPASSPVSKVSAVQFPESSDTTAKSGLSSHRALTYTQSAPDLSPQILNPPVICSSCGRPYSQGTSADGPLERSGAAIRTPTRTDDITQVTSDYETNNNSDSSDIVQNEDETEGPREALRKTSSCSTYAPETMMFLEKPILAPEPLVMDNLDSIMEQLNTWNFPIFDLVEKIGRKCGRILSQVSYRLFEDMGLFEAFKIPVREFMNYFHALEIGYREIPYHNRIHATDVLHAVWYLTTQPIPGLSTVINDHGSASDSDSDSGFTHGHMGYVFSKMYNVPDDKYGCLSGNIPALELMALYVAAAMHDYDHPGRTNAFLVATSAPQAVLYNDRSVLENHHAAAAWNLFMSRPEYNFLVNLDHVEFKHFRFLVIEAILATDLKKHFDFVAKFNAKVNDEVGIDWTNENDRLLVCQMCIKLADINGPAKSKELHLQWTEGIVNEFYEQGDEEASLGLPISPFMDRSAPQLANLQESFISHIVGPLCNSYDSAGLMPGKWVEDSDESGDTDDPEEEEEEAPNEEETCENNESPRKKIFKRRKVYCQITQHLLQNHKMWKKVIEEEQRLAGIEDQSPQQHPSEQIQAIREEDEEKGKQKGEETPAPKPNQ
The experiment in a line: Selectivity: inhibition of PDE3 (radioenzymatic assay). To be noted: Table 2; 10 μM compound; read-out: PDE3 percentage inhibition at 10 μM. The format is biochemical, bovine. The method, then:
as §1, with “PDE2 was isolated from human platelets, provided by Etablissement Français du Sang-Alsace, according to Kameni Tcheudji J F et al., (J. Mol. Biol. 2001; 310: 181-791), and stored until use at −80° C. in small aliquots.” left out
(§3) Cyclic nucleotide phosphodiesterase activity was determined by a radioenzymatic method using tritium-labelled cyclic GMP or AMP (1 μM) as substrate (Lugnier et al., 1986). ^3H-labelled adenosine or guanosine monophosphate formed by hydrolysis of the radiolabelled cyclic nucleotide was then converted to ^3H-labelled adenosine or guanosine in a second reaction with one nucleotidase in excess. […] Nucleoside radioactivity was determined by liquid scintillation counting. […]
as §2

The next assay has as its system PDE1. The experiment in a line: Selectivity: inhibition of PDE1 (radioenzymatic assay). Particulars: Table 2. The format is biochemical, bovine. The method, then: as §1, with “PDE2 was isolated from human platelets, provided by Etablissement Français du Sang-Alsace, according to Kameni Tcheudji J F et al., (J. Mol. Biol. 2001; 310: 181-791), and stored until use at −80° C. in small aliquots.” left out
as §3, §2

The next assay addresses T2, PDE2 (Homo sapiens, UniProt O00408).
T2 construct: PDE2 was isolated from human platelets, provided by Etablissement Français du Sang-Alsace; tissue Etablissement Français du Sang-Alsace; host or cells: human platelets
Description: Inhibition of PDE2 (radioenzymatic phosphodiesterase assay). The format is biochemical. Particulars: Table 1, 1 μM cyclic AMP. The gist of the method:
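PDE2 isolated from human platelets was assayed radioenzymatically with 1 μM [3H]-cAMP substrate, limiting hydrolysis to ≤15%, in duplicate. Product was converted to nucleoside by nucleotidase, separated by anion exchange and counted by scintillation; IC50 from nonlinear regression of hydrolysis rates.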

The next assay deals with T3, PDE5 (Bos taurus, UniProt Q28156).
T3 construct: PDE3, PDE4 and PDE5 from vascular smooth muscle; from tissue; host or cells: bovine aortic media (vascular smooth muscle), DEAE-Sephacel fraction
The experiment in a line: Selectivity: inhibition of PDE5 (radioenzymatic assay). The format is biochemical, bovine. To be noted: Table 2. Here is the method:
as §1, with “PDE2 was isolated from human platelets, provided by Etablissement Français du Sang-Alsace, according to Kameni Tcheudji J F et al., (J. Mol. Biol. 2001; 310: 181-791), and stored until use at −80° C. in small aliquots.” left out
as §3, §2

A word on the IC50: it is the concentration at which inhibition is half-maximal. What is called inhibition is the percentage by which the read-out fell short of the control.

T2 sequence (O00408 whole entry): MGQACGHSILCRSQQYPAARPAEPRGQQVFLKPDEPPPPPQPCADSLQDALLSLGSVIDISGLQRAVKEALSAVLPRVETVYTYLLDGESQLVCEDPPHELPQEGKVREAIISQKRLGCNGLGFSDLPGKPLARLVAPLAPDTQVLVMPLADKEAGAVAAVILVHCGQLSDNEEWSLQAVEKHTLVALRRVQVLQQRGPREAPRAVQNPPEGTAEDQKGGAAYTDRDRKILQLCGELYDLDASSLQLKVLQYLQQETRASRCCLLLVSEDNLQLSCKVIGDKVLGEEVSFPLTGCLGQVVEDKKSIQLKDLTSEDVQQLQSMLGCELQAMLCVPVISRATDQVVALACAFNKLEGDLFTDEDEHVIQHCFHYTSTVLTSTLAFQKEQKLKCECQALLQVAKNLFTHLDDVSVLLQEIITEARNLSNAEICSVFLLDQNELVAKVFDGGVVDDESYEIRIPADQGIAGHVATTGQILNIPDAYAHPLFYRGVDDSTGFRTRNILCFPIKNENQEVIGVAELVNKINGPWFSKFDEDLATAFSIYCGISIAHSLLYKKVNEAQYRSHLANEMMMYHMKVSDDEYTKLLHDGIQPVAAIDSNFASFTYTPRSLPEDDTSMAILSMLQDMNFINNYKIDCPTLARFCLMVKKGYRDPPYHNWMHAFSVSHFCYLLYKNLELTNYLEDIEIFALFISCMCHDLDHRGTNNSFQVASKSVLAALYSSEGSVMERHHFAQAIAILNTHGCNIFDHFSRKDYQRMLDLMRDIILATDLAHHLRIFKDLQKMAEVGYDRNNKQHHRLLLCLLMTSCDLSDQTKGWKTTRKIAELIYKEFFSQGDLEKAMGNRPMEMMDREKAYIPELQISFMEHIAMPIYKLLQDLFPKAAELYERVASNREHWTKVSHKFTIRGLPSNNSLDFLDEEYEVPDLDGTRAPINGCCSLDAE

With `COc1cc2c(c(OC)c1-c1ccccc1)C(c1cccc(C(N)=O)c1)=NCC(=O)N2C` [Compound 17, 3-(6,8-Dimethoxy-1-methyl-2-oxo-7-phenyl-2,3-dihydro-1H-benzo[e][1,4]diazepin-5-yl)-benzamide], in the assay with PDE4 (10 μM compound), the “PDE4 percentage inhibition at 10 μM” value is 23%. The 50% inhibitory concentration (IC50) with PDE4 (value in square brackets) was found to be 47 µM; with PDE1 (value in square brackets) it was 37 µM; on PDE2 (value in square brackets, read-out: PDE2 IC50), 0.8 µM; against PDE5 (value in square brackets), 42 µM. Also, the inhibition at 10 µM worked out at 20% on PDE3; 80% at PDE2 (10 μM compound, read-out: PDE2 percentage inhibition at 10 μM); 22% at PDE5 (10 μM compound, read-out: PDE5 percentage inhibition at 10 μM). Further, in the assay on PDE1 (10 μM compound), the “PDE1 percentage inhibition at 10 μM” value worked out at 22%.

Values taken from patent publication US20090215752A1, “Compounds, preparation and therapeutic use thereof” (priority 2005, published 2009).
